Measured values published in patent EP0973746B1, “SUBSTITUTED 3-CYANO QUINOLINES” (Wyeth Holdings Corporation, priority 1997, dated 1998).
In brackets after ≈: the same amount, converted by molar mass. Several values for one entry are separate records, joined by “and”; a condition that tells them apart may be missing. Equal values may be shown once. Where a name gives a salt, the structure may show the parent alone. Read-outs that look alike come from different tables or passages of the source.

Key:
[1] = biological target: T1, His-tagged cytoplasmic domain of EGFR (Homo sapiens, UniProt P00533); test: Inhibition of Epidermal Growth Factor Receptor Kinase (EGF-R) using recombinant enzyme; format: biochemical; details: recombinant enzyme; RR-SRC peptide; average of the number of tests; read-out: IC50;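 also: radiometric kinase assay measuring radiolabeled phosphate transfer from ATP onto the peptide tyrosine by scintillation counting, control is reaction without compound, background subtracted, IC50 from dose-response curve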
T1 construct: containing the EGFR cDNA encoding amino acids 645 - 1186 preceded by Met-Ala-(His)6; made in house; host or cells: Sf9 cells, recombinant baculovirus vHcEGFR52
Protocol: The enzyme used in this assay is the His-tagged cytoplasmic domain of EGFR.
Compounds to be evaluated were made into 10 mg/mL stock solutions in 100% dimethylsulfoxide (DMSO). Prior to experiment, stock solutions were diluted to 500 µM with 100% DMSO and then serially diluted to the desired concentration with HEPES buffer (30 mM HEPES pH 7.4).
For the enzyme reaction, 10 µL of each inhibitor (at various concentrations) were added to each well of a 96-well plate. […] This was allowed to sit for 10 min on ice and was followed by the addition of 5 µl peptide (80 µM final conc.), 10µl of 4X Buffer (Table A), 0.25 µL ^33P-ATP and 12 µL H2O. The reaction was allowed to run for 90 min at room temperature and was followed by spotting the entire volume on to precut P81 filter papers. The filter discs were washed 2X with 0.5% phosphoric acid and radioactivity was measured using a liquid scintillation counter.
The % inhibition of the test compound was determined for at least three different concentrations and the IC50 value was evaluated from the dose response curve. […] CPM(control) is in units of counts per minute and was a number expressing the amount of radiolabeled ATP (g-33P) incorporated into the RR-SRC peptide substrate by the enzyme after 90 minutes at room temperature in the absence of test compound as measured by liquid scintillation counting. The CPM values were corrected for the background counts produced by ATP in the absence of the enzymatic reaction. The IC50 values reported in TABLE 2 are averages of the number of tests conducted.

[2] = biological target: recombinant human MEK 1 (MAPKK) and recombinant human ERK2 (MAPK); test: Mitogen Activated Protein Kinase (MAPK) assay, two component coupled MEK 1 / ERK2; format: biochemical; details: separate entries for the same compound = evaluated more than one time;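 also: MEK 1-activated ERK2 phosphorylates MBP or Myc peptide with 33P-ATP, filter capture and scintillation counting, inhibitor preincubated with ERK2 30 min at 0 °C, inhibition relative to uninhibited control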
[3] = system: SKBR3; test: Inhibition of cancer cell growth as measured by cell number, SKBR3; format: cell-based, human; details: Table 8; for IC50: Homo sapiens;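 as to all read-outs here: SK-BR-3 cells were selected as a line overexpressing HER2/neu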
Description: (§1) The cell lines were chosen since they overexpressed epidermal growth factor receptor (EGFR) (i.e. A431) or HER2/neu (SKBR3), or had little to no expression of the these receptors (SW620, LOX, MCF7).

[4] = system: SW620; test: Inhibition of cancer cell growth as measured by cell number, SW620; format: cell-based, human; details: Table 8; for IC50: Homo sapiens, SW-620, 48 h;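 as to all read-outs here: SW620 was included as a cell line with little or no EGFR or HER2/neu expression, in contrast to receptor-overexpressing lines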
Description: as §1

[5] = system: A431; test: Inhibition of cancer cell growth as measured by cell number, A431; format: cell-based, human; details: Homo sapiens, A-431, 48 h, Table 8;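 also: human A431 line, picked because it overexpresses epidermal growth factor receptor (EGFR)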
Description: as §1

[6] = system: human epidermoid tumors (A431); test: In vivo inhibition of the growth of human epidermoid tumors (A431); details: Table 11; for S/T = No. Survivors/No. Treated: Day +28 post tumor staging
Protocol: Representative compounds of this invention (listed below) were evaluated in an in vivo standard pharmacological test procedure which measured its ability to inhibit the growth of human epidermoid tumors. […] BALB/c nu/nu female mice (Charles River, Wilmington, MA) were used in this in vivo standard pharmacological test procedure. A unit of 5 X 10^6 cells were injected SC into mice. When tumors attained a mass of between 100 and 150 mg, the mice were randomized into treatment groups (day zero). […] Control animals received no drug. Tumor mass was determined every 7 days [(length X width^2)/2] for 28 days post staging. Relative tumor growth (Mean tumor mass on days 7, 14, 21, and 28 divided by the mean tumor mass on day zero) is determined for each treatment group.

[7] = cell number, Sulforhodamine B, 48 hours exposure
[8] = SK-BR-3, 48 h, read-out: IC50 SKBR3, cell number, Sulforhodamine B, 48 hours exposure
[9] = read-out: IC50 SW620, cell number, Sulforhodamine B, 48 hours exposure
[10] = SK-BR-3, cell number, Sulforhodamine B, 48 hours exposure, read-out: IC50 SKBR3
[11] = cell number, Sulforhodamine B, 48 hours exposure, read-out: IC50 A431
[12] = cell number, Sulforhodamine B, 48 hours exposure, read-out: IC50 SW620
[13] = 80 mg/kg/dose IP on days 1,5 and 9
[14] = 80 mg/kg/dose PO on days 1 through 10

T1 sequence (P00533 669-1210): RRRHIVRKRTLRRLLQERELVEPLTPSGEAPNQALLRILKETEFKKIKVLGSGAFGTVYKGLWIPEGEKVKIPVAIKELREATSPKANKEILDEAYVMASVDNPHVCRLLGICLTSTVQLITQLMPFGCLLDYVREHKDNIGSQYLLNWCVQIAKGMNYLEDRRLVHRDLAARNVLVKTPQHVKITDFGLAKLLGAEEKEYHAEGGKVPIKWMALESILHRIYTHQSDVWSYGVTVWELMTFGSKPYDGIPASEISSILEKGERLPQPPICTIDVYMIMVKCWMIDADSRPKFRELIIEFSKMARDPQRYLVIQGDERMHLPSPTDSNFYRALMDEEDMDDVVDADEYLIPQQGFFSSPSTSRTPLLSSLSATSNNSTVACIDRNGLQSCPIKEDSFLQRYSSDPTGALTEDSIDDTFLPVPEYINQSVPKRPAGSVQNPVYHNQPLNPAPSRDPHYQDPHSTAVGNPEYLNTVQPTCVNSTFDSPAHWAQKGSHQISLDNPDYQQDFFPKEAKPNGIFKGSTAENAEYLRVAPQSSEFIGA

Compound	IC50 [1] [µM]	IC50 [2]	other results
COc1cc2c(Nc3cccc(Br)c3)c(C#N)cnc2cc1OCCCN1CCOCC1 [Example 313, 4-(3-Bromo-phenylamino)-6-methoxy-7-(3-morpholin-4-yl-propoxy)-quinoline-3-carbonitrile]	0.4	> 100 µM	
C=C(C)C(=O)Nc1ccc2ncc(C#N)c(Nc3cccc(Br)c3)c2c1 [Example 383, N-[4-(3-Bromophenylamino)-3-cyanoquinolin-6-yl]-2-methylacrylamide]	0.007	> 100 µM	
CCOc1cc2ncc(C#N)c(Nc3ccc(F)c(Cl)c3)c2cc1OCC [Example 256, 4-(3-Chloro-4-fluorophenylamino)-6,7-diethoxy-3-quinolinecarbonitrile]	0.1		
CC#CC(=O)Nc1ccc2ncc(C#N)c(Nc3cccc(OC)c3)c2c1 [Example 139, N-{3-Cyano-4-[(3-methoxyphenyl)amino]-6-quinolinyl}-2-butynamide]	0.5	35 µM	
CCOc1cc2ncc(C#N)c(NCc3ccc(Cl)c(Cl)c3)c2cc1OCC [Example 64, 4-(3.4-Dichlorophenylmethylamino)-6,7-diethoxy-3-quinolinecarbonitrile]		3 µM	IC50 SKBR3 [3, 7]: 1.965 µg/mL (≈ 4.72 µM); IC50 SW620 [4, 7]: 1.603 µg/mL (≈ 3.85 µM)
C=C(CN1CCOCC1)C(=O)Nc1ccc2ncc(C#N)c(Nc3ccc(F)c(Cl)c3)c2c1 [Example 148, N-{4-[(3-chloro-4-fluorophenyl)amino]-3-cyano-6-quinolinyl}-2-morpholin-4-ylmethyl-2-propenamide]			IC50 [3, 8]: 0.043 µg/mL (≈ 0.0923 µM); IC50 [4, 9]: 0.26 µg/mL (≈ 0.558 µM)
N#Cc1cnc2ccc(N)cc2c1Nc1ccc(Br)cc1 [Example 152, 6-Amino-4-[(4-bromophenyl)amino]-3-quinolinecarbonitrile]	0.1		
CN(C)c1ccc2ncc(C#N)c(Nc3cccc(Br)c3)c2c1 [Example 395, 4-(3-Bromophenylamino)-6-dimethylaminoquinoline-3-carbonitrile Hydrochloride]	0.5	15 µM	
COc1cc(NC(=O)C=CCN(C)C)cc2c(Nc3cccc(Br)c3)c(C#N)cnc12 [Example 224]	1		
COc1cccc(Nc2c(C#N)cnc3ccc(N(C)C)cc23)c1.Cl [Example 396, 6-Dimethylamino-4-(3-methoxyphenylamino)quinoline-3-carbonitrile Hydrochloride]		50 µM	IC50 [3, 10]: 0.2 µg/mL; IC50 [5, 11]: 0.3 µg/mL; IC50 [4, 12]: 2.7 µg/mL
C=CC(=O)Nc1ccc2ncc(C#N)c(Nc3cccc(F)c3)c2c1 [Example 88, N-[3-Cyano-4-(3-fluorophenylamino)quinolin-6-yl]acrylamide]	0.08		
COc1cc2ncc(C#N)c(Nc3ccc(Cl)cc3F)c2cc1N [Example 360, 6-Amino-4[(4-Chloro-2-fluorophenyl)amino]-7-methoxy-3-quinolinecarbonitrile]	0.5		
C=CC(=O)Nc1ccc2ncc(C#N)c(Nc3cccc(Cl)c3)c2c1 [Example 135, N-4-[(3-Chlorophenyl)amino]-3-cyano-6-guinolinyl-2-propenarnide]	0.01		
CCOc1cc2ncc(C#N)c(Nc3cccc(Br)c3)c2cc1NC(=O)C=CCN(C)C [Example 216, 4-Dimethylamino-but-2-enoic acid [4-(3-bromo-phenylamino)-3-cyano-7-ethoxy-quinolin-6-yl]-amide]			IC50 [3, 8]: 0.012 µg/mL (≈ 0.0243 µM); IC50 SKBR3 [3, 7]: 0.015 µg/mL (≈ 0.0303 µM); %T/C Day 7 [6, 13]: 14%; %T/C Day 14 [6, 13]: 12%; %T/C Day 21 [6, 13]: 17%; %T/C Day 28 [6, 13]: 19%; S/T = No. Survivors/No. Treated [6, 13]: 5/5; %T/C Day 7 [6, 14]: 6%; %T/C Day 14 [6, 14]: 6%; %T/C Day 21 [6, 14]: 12%; %T/C Day 28 [6, 14]: 21%; S/T = No. Survivors/No. Treated [6, 14]: 5/5
C=CC(=O)Nc1cc(CN(C)C)c2ncc(C#N)c(Nc3cccc(Br)c3)c2c1 [Example 111, N-{4-[(3-Bromophenyl)amino]-3-cyano-8-dimethylaminomethyl-6-quinolinyl}-2-propenamide]			IC50 [3, 10]: 3.32 µg/mL (≈ 7.38 µM); IC50 [5, 11]: 3.05 µg/mL (≈ 6.76 µM); IC50 [4, 12]: 2.02 µg/mL (≈ 4.48 µM)
CCOc1cc2ncc(C#N)c(NCc3ccccc3)c2cc1OCC [Example 62, 4-(3-Phenylmethylamino)-6,7-diethoxy-3-quinolinecarbonitrile]			IC50 SKBR3 [3, 7]: 0.3 µg/mL (≈ 0.864 µM); IC50 SW620 [4, 7]: 0.3 µg/mL (≈ 0.864 µM)
CCOc1cc2ncc(C#N)c(NCc3cccc(Br)c3)c2cc1OCC [Example 61, 4-(3-Bromophenylmethylamino)-6,7-diethoxy-3-quinolinecarbonitrile]		> 100 µM	IC50 [3, 10]: 1.09 µg/mL (≈ 2.57 µM); IC50 [5, 11]: 0.341 µg/mL (≈ 0.8 µM); IC50 [4, 12]: 1.07 µg/mL (≈ 2.5 µM)

Compound	IC50 [1] [µM]	IC50 [2]	other results
CN(C)c1ccc(Nc2c(C#N)cnc3ccc(N)cc23)cc1 [Example 389, 6-Amino-4-(4-dimethylaminophenylamino)quinoline-3-carbonitrile]		> 100 µM	
COc1ccc(Nc2c(C#N)cnc3c(OC)cc(N)cc23)cc1O [Example 345, 6-Amino-4-(3-hydroxy-4-methoxy-phenylamino)-8-methoxy-quinoline-3-carbonitrile]		> 100 µM	
CSc1cccc(Nc2c(C#N)cnc3ccc([N+](=O)[O-])cc23)c1 [Example 364, 4-[(3-Methylsulfanylphenyl)amino]-6-nitro-3-quinolinecarbonitrile]		> 100 µM	
N#Cc1cnc2ccc([N+](=O)[O-])cc2c1Nc1cccc(F)c1 [Example 384, 4-(3-Fluorophenylamino)-6-nitroquinoline-3-carbonitrile]		> 100 µM	
COc1cc2ncc(C#N)c(Nc3ccccc3CCO)c2cc1OC [Example 301, 4-[2-(2-Hydroxy-ethyl)-phenylamino]-6,7-dimethoxy-quinoline-3-carbonitrile]		12 µM	
CCOc1cc2ncc(C#N)c(Nc3cccc(C(C)=O)c3)c2cc1OCC [Example 257, 4-(3-acetylphenylamino)-6,7-diethoxy-3-quinolinecarbonitrile]		> 100 µM	
COc1cccc(Nc2c(C#N)cnc3ccc(N)cc23)c1 [Example 141, 6-Amino-4-[(3-methoxyphenyl)amino]-3-quinolinecarbonitrile]		35 µM	
CC(=O)Nc1cc(CN(C)C)c2ncc(C#N)c(Nc3cccc(Br)c3)c2c1 [Example 112, N-{4-[(3-Bromophenyl)amino]-3-cyano-8-dimethylaminomethyl-6-quinolinyl} acetamide]		> 100 µM	IC50 [3, 8]: > 5 µg/mL; IC50 ([5]; read-out: IC50 A431, cell number, Sulforhodamine B, 48 hours exposure): > 5 µg/mL; IC50 [4, 9]: > 5 µg/mL
N#Cc1cnc2ccc(NC(=O)/C=C\Cl)cc2c1Nc1cccc(Br)c1 [Example 327, N-[4-(3-Bromo-phenylamino)-3-cyano-quinolin-6-yl]-3-chloro-(Z)-acrylamide]	0.01		
CN(C)CC#CC(=O)Nc1ccc2ncc(C#N)c(Nc3ccc(F)c(Br)c3)c2c1 [Example 197, N-[4-[(3-Bromo-4-fluorophenyl)amino]-3-cyano-6-quinolinyl]-4-dimethylamino-2-butynamide]		35 µM	
C=C(CN1CCOCC1)C(=O)Nc1ccc2ncc(C#N)c(Nc3cccc(Br)c3)c2c1 [Example 171, N-{4-[(3-Bromophenyl)amino]-3-cyano-6-quinolinyl}-2-morpholin-4-ylmethyl-2-propenamide]	0.0065		
COc1cc2ncc(C#N)c(Nc3ccc(O)cc3Cl)c2cc1OC [Example 296, 4-(2-Chloro-4-hydroxy-phenylamino)-6,7-dimethoxy-quinoline-3-carbonitrile]		3.5 µM	
COc1cc2ncc(C#N)c(Nc3cccc(O)c3C)c2cc1OC [Example 374, 4-(3-Hydroxy-2-methyl-phenylamino)-6,7-dimethoxy-quinoline-3-carbonitrile]		< 1 µM and 2 µM	
N#Cc1cnc2ccc(N)cc2c1Nc1ccc(F)c(Cl)c1 [Example 149, 6-Amino-4-[(3-chloro-4-fluorophenyl)amino]-3-quinolinecarbonitrile]		2 µM and 4 µM	
COc1cc2ncc(C#N)c(Nc3cccc(NC(C)=O)c3)c2cc1OC [Example 265, 4-(3-Acetamidophenylamino)-6,7-dimethoxy-3-quinolinecarbonitrile]		20 µM	
CN(C)c1cccc(Nc2c(C#N)cnc3ccc(N)cc23)c1 [Example 388, 6-Amino-4-(3-dimethylaminophenylamino)quinoline-3-carbonitrile]		25 µM and 50 µM	
